# Measurements: PMC7879681, “Baicalein inhibits heparin-induced Tau aggregation by initializing non-toxic Tau oligomer formation” (Cell Communication and Signaling : CCS, 2021)
# Target: T1, full-length Tau (hTau40WT) (Homo sapiens, UniProt P10636)
# T1 construct: gene MAPT; recombinant wild type human full-length Tau (hTau40WT)
# Assay: ThS fluorescence inhibition of heparin-induced aggregation of purified Tau; supported by ANS, SDS-PAGE, CD, TEM; dissolves preformed fibrils (DC50 […])
# Assay type: biochemical
# T1 sequence (P10636 2-441 isoform P10636-8): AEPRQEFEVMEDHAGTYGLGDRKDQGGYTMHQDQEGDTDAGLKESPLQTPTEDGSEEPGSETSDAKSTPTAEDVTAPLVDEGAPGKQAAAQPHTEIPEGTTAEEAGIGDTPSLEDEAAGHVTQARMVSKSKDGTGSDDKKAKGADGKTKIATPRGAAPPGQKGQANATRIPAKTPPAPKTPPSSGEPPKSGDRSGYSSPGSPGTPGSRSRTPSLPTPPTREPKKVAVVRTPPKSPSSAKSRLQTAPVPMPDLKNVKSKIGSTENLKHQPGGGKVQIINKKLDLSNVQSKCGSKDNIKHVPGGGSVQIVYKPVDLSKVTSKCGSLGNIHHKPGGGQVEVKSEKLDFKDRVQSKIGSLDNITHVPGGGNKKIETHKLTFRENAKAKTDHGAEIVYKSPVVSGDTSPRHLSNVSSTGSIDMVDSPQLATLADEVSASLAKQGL
structure (smiles),measurement,value
O=c1cc(-c2ccccc2)oc2cc(O)c(O)c(O)c12 [Baicalein],IC50,27.7 µM
